Laboratory results reported in patent US20240191267A1, “Tropane Alkaloid Transporters and Methods of Making Tropane Alkaloids Using the Same” (priority 2021, published 2024).
“And” between values parts separate entries of the source, which are not always exact repeats. Equal entries are not always repeated.

Assays:
[1] = tested on: AbUGT84A27 active site mutants; experiment: Conversion of fed phenylpropanoids to glucosides by yeast expressing AbUGT active site mutants; assay type: cell-based, Atropa belladonna; conditions: F130Y, L205F, I292Q point mutants of AbUGT in CSY1251; 500 μM substrate, 72 h
Procedure: FIG. 36 illustrates the substrate specificity of AbUGT84A27 active site mutants. […] AbUGT wild-type, active site mutants, or a BFP negative control were expressed from low-copy plasmids in CSY1251. Transformed cells were cultured in selective media supplemented with 500 μM PLA, CA, or FA for 72 h prior to LC-MS/MS analysis. Data represent the mean of n=3 biologically independent samples ±standard deviation.
6.1) As wild-type yeast produce only trace levels of PLA, production of this TA precursor must be increased to permit sufficient accumulation of downstream TAs. To improve PLA production, heterologous phenylpyruvate reductases (PPRs) may be expressed in the engineered host cells. PPR orthologs from E. coli, Lactobacillus, A. belladonna, and Wickerhamia fluorescens, as well as lactate dehydrogenases (LDHs) from Bacillus and Lactobacillus with reported activity on 3-phenylpyruvate (Table 1) were screened for activity in yeast by expressing each enzyme from a low-copy plasmid in CSY1251 and measuring PLA production by LC-MS/MS after 72 h of growth in selective media. […] As such, WfPPR was selected for integration into CSY1251 to make strain CSY1287. […] 6.4.2.1) Extra copies of PGM2 and UGP1 were expressed from low-copy plasmids in CSY1288 and PLA glucoside production was measured following 72 h of growth in selective media. […]

[2] = tested on: UGT84A27 orthologs (AbUGT, BsUGT, DmUGT); assay type: cell-based, Atropa belladonna, Brugmansia sanguinea, D. metel; conditions: all three UGT orthologs, low-copy plasmids in CSY1251; 500 μM substrate, 72 h
Procedure: FIG. 33 illustrates the substrate specificity of UDP-glucosyltransferase 84A27 (UGT84A27) orthologs from TA-producing Solanaceae expressed in engineered yeast. […] (A) Phenylpropanoids tested as glucose (Glu) acceptors for UGT84A27 in engineered yeast. […] (B) Heatmap of percent conversion of fed phenylpropanoids to glucosides by yeast engineered for UGT84A27 expression. UGT84A27 orthologs or a BFP negative control were expressed from low-copy plasmids in CSY1251. Transformed cells were cultured in selective media supplemented with 500 μM PLA, CA, or FA for 72 h prior to LC-MS/MS analysis. Data represent the mean of n=3 biologically independent samples ±standard deviation.

[3] = molecular target: T1, AbUGT (UDP-glucosyltransferase 84A27) (Atropa belladonna, UniProt A0A3B6XRM0); experiment: Conversion of fed phenylpropanoids to glucosides by yeast expressing AbUGT; assay type: cell-based; conditions: AbUGT from low-copy plasmid in CSY1251; 500 μM substrate, 72 h, selective media
T1 construct: expressed in transfected cells; host or cells: Saccharomyces cerevisiae CSY1251 (tropine-producing, CEN.PK2-derived), low-copy plasmid
T1 sequence (A0A3B6XRM0 1-490): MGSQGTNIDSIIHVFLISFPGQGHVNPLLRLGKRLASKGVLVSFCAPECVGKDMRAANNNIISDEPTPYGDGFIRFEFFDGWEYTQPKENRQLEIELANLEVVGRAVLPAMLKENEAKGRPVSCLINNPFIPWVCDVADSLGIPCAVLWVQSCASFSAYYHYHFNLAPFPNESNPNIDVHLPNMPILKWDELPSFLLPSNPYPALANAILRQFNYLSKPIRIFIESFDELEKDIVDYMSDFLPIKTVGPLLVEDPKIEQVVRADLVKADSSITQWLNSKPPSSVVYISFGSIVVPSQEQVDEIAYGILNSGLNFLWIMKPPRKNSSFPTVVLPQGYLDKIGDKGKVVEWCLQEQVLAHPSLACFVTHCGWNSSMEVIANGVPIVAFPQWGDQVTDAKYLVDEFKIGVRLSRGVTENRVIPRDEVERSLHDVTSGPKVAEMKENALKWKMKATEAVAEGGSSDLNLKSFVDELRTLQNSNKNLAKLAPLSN
Procedure: (B) Heatmap of percent conversion of fed phenylpropanoids to glucosides by yeast engineered for UGT84A27 expression. UGT84A27 orthologs or a BFP negative control were expressed from low-copy plasmids in CSY1251. Transformed cells were cultured in selective media supplemented with 500 μM PLA, CA, or FA for 72 h prior to LC-MS/MS analysis. Data represent the mean of n=3 biologically independent samples ±standard deviation.

[4] = tested on: AbLP1; experiment: Yeast toxicity assay and growth curves, AD1-8 expressing AbLP1
Description: (§1) Solid lines and shaded/hatched bars respectively indicate mean and standard deviation of n=3 biologically independent samples.
(§2) Heatmap values were extracted from mean growth curves in FIG. 80.
as §1, §1
(§3) Yeast toxicity assays and growth curves. Candidate transporters for use in non-plant cells for the purpose of enhancing or modulating metabolite localization may be characterized in any suitable strain of the non-plant organism of interest. […] An example protocol for the characterization of TA transporters in yeast is provided as follows. […] Strain AD1-8 is transformed as described earlier with a low-copy plasmid harboring a constitutively expressed transporter candidate or blue fluorescent protein as negative control and a suitable auxotrophic marker, such as URA3, LEU2, TRP1, or […]. Transformants are inoculated into 1 mL of selective YNB-G media and grown overnight (˜14-18 h) at 30° C. and 460 rpm. […] Culture densities (OD600) are then measured every 30 min for 48 h in a suitable plate reader, such as a SpectraMax i3 plate reader (Molecular Devices), with chamber temperature 30° C. and orbital shaking every 30 min. […]

[5] = tested on: AbPUP1; experiment: Yeast toxicity assay and growth curves, AD1-8 expressing AbPUP1
Description: as §1, §2, §1, §1, §3

[6] = tested on: Strain AD1-8; conditions: selective media
Description: as §1, §2, §3

Structure (SMILES): O=C(O)[C@H](O)Cc1ccccc1 [PLA, (D)-3-phenyllactic acid]
- percent conversion of fed phenylpropanoid to glucoside [1]: < 3%
- percent conversion of fed phenylpropanoid to glucoside [2]: < 3%
- percent conversion of fed phenylpropanoid to glucoside [3]: < 3% and 2.7%

Structure (SMILES): O=C(O)/C=C/c1ccccc1 [cinnamic acid, trans-cinnamic acid]
- percent conversion of fed phenylpropanoid to glucoside [3]: ~60%

Structure (SMILES): CN1[C@@H]2CC[C@H]1CC(OC(=O)[C@H](O)Cc1ccccc1)C2 (stereo partly shown) [littorine]
- θHM, ratio of time for half-maximal OD600 at 20 mM relative to at 0 mM ([4]; AD1-8 expressing AbLP1 from low-copy plasmid, selective media, 0-20 mM alkaloid): ~1.1
- θHM, ratio of time for half-maximal OD600 at 20 mM relative to at 0 mM ([5]; AD1-8 expressing AbPUP1 from low-copy plasmid, selective media, 0-20 mM alkaloid): ~1.3
- θHM, ratio of time for half-maximal OD600 at 20 mM relative to at 0 mM ([6]; AD1-8 expressing BFP control from low-copy plasmid, 0-20 mM alkaloid): ~1.0

Structure (SMILES): CN1[C@@H]2CC[C@H]1C[C@@H](O)C2 [tropine]
- sensitivity to alkaloid conferred by transporter expression ([4]; AD1-8 expressing AbLP1, tropine only at 1 mM): not
- sensitivity to alkaloid conferred by transporter expression ([5]; AD1-8 expressing AbPUP1, tropine only at 1 mM): not
- growth of AD1-8 at tested concentrations higher than 1 mM ([6]; concentrations above 1 mM): severely retarded the growth
